Laboratory results from PubChem BioAssay AID1259407 (Chemical Carcinogenesis Research Information System (CCRIS), 2018).
Activity calls are given as the source filed them. The rule behind the calls is not given here.

System: CCRIS mutagenicity, Ames/micronucleus/aberration tests
Test: CCRIS mutagenicity studies

`Nc1ncc([N+](=O)[O-])s1` was tested, and the mutagenic call (Test System: AMES SALMONELLA TYPHIMURIUM, Strain/Indicator: TA98, Metabolic Activation: HAMSTER, LIVER, S-9, AROCLOR 1254, Method: STANDARD PLATE) was “inactive; negative”, the mutagenic call (Test System: AMES SALMONELLA TYPHIMURIUM, Strain/Indicator: TA98, Metabolic Activation: HAMSTER, LIVER, S-9, Method: STANDARD PLATE) was “inactive; negative” and the mutagenic call (Test System: AMES SALMONELLA TYPHIMURIUM, Strain/Indicator: TA98, Metabolic Activation: MOUSE, LIVER, S-9, AROCLOR 1254, Method: STANDARD PLATE) was “inactive; negative”. The mutagenic call (Test System: AMES SALMONELLA TYPHIMURIUM, Strain/Indicator: TA98, Metabolic Activation: MOUSE, LIVER, S-9, Method: STANDARD PLATE) was “inactive; negative”, the mutagenic call (Test System: AMES SALMONELLA TYPHIMURIUM, Strain/Indicator: TA98, Metabolic Activation: NONE, Method: STANDARD PLATE) was “inactive; negative” and the mutagenic call (Test System: AMES SALMONELLA TYPHIMURIUM, Strain/Indicator: TA98, Metabolic Activation: RAT, LIVER, S-9, AROCLOR 1254, Method: STANDARD PLATE) was “inactive; negative”. For the same compound, the mutagenic call (Test System: AMES SALMONELLA TYPHIMURIUM, Strain/Indicator: TA98, Metabolic Activation: RAT, LIVER, S-9, Method: STANDARD PLATE) was “inactive; negative”, the mutagenic call (Test System: AMES SALMONELLA TYPHIMURIUM, Strain/Indicator: TA100, Metabolic Activation: HAMSTER, LIVER, S-9, AROCLOR 1254, Method: STANDARD PLATE) was “inactive; negative” and the mutagenic call (Test System: AMES SALMONELLA TYPHIMURIUM, Strain/Indicator: TA100, Metabolic Activation: NONE, Method: STANDARD PLATE) was “inactive; negative”. For the same compound, the mutagenic call (Test System: AMES SALMONELLA TYPHIMURIUM, Strain/Indicator: TA1535, Metabolic Activation: HAMSTER, LIVER, S-9, AROCLOR 1254, Method: STANDARD PLATE) was “inactive; negative”, the mutagenic call (Test System: AMES SALMONELLA TYPHIMURIUM, Strain/Indicator: TA1535, Metabolic Activation: HAMSTER, LIVER, S-9, Method: STANDARD PLATE) was “inactive; negative” and the mutagenic call (Test System: AMES SALMONELLA TYPHIMURIUM, Strain/Indicator: TA1535, Metabolic Activation: MOUSE, LIVER, S-9, AROCLOR 1254, Method: STANDARD PLATE) was “inactive; negative”. The mutagenic call (Test System: AMES SALMONELLA TYPHIMURIUM, Strain/Indicator: TA1535, Metabolic Activation: MOUSE, LIVER, S-9, Method: STANDARD PLATE) was “inactive; negative”, the mutagenic call (Test System: AMES SALMONELLA TYPHIMURIUM, Strain/Indicator: TA1535, Metabolic Activation: NONE, Method: STANDARD PLATE) was “inactive; negative” and the mutagenic call (Test System: AMES SALMONELLA TYPHIMURIUM, Strain/Indicator: TA1535, Metabolic Activation: RAT, LIVER, S-9, AROCLOR 1254, Method: STANDARD PLATE) was “inactive; negative”. For the same compound, the mutagenic call (Test System: AMES SALMONELLA TYPHIMURIUM, Strain/Indicator: TA1535, Metabolic Activation: RAT, LIVER, S-9, Method: STANDARD PLATE) was “inactive; negative”, the mutagenic call (Test System: AMES SALMONELLA TYPHIMURIUM, Strain/Indicator: TA1537, Metabolic Activation: HAMSTER, LIVER, S-9, AROCLOR 1254, Method: STANDARD PLATE) was “inactive; negative” and the mutagenic call (Test System: AMES SALMONELLA TYPHIMURIUM, Strain/Indicator: TA1537, Metabolic Activation: HAMSTER, LIVER, S-9, Method: STANDARD PLATE) was “inactive; negative”. For the same compound, the mutagenic call (Test System: AMES SALMONELLA TYPHIMURIUM, Strain/Indicator: TA1537, Metabolic Activation: MOUSE, LIVER, S-9, AROCLOR 1254, Method: STANDARD PLATE) was “inactive; negative”, the mutagenic call (Test System: AMES SALMONELLA TYPHIMURIUM, Strain/Indicator: TA1537, Metabolic Activation: MOUSE, LIVER, S-9, Method: STANDARD PLATE) was “inactive; negative” and the mutagenic call (Test System: AMES SALMONELLA TYPHIMURIUM, Strain/Indicator: TA1537, Metabolic Activation: NONE, Method: STANDARD PLATE) was “inactive; negative”. The mutagenic call (Test System: AMES SALMONELLA TYPHIMURIUM, Strain/Indicator: TA1537, Metabolic Activation: RAT, LIVER, S-9, AROCLOR 1254, Method: STANDARD PLATE) was “inactive; negative”, the mutagenic call (Test System: AMES SALMONELLA TYPHIMURIUM, Strain/Indicator: TA1537, Metabolic Activation: RAT, LIVER, S-9, Method: STANDARD PLATE) was “inactive; negative” and the mutagenic call (Test System: AMES SALMONELLA TYPHIMURIUM, Strain/Indicator: TA1538, Metabolic Activation: HAMSTER, LIVER, S-9, AROCLOR 1254, Method: STANDARD PLATE) was “inactive; negative”. The mutagenic call (Test System: AMES SALMONELLA TYPHIMURIUM, Strain/Indicator: TA1538, Metabolic Activation: HAMSTER, LIVER, S-9, Method: STANDARD PLATE) was “inactive; negative”, the mutagenic call (Test System: AMES SALMONELLA TYPHIMURIUM, Strain/Indicator: TA1538, Metabolic Activation: MOUSE, LIVER, S-9, AROCLOR 1254, Method: STANDARD PLATE) was “inactive; negative” and the mutagenic call (Test System: AMES SALMONELLA TYPHIMURIUM, Strain/Indicator: TA1538, Metabolic Activation: MOUSE, LIVER, S-9, Method: STANDARD PLATE) was “inactive; negative”. The mutagenic call (Test System: AMES SALMONELLA TYPHIMURIUM, Strain/Indicator: TA1538, Metabolic Activation: NONE, Method: STANDARD PLATE) was “inactive; negative”, the mutagenic call (Test System: AMES SALMONELLA TYPHIMURIUM, Strain/Indicator: TA1538, Metabolic Activation: RAT, LIVER, S-9, AROCLOR 1254, Method: STANDARD PLATE) was “inactive; negative” and the mutagenic call (Test System: AMES SALMONELLA TYPHIMURIUM, Strain/Indicator: TA1538, Metabolic Activation: RAT, LIVER, S-9, Method: STANDARD PLATE) was “inactive; negative”. For the same compound, the mutagenic call (Test System: E. COLI, Strain/Indicator: WP2 UVRA, Metabolic Activation: HAMSTER, LIVER, S-9, AROCLOR 1254, Method: STANDARD PLATE) was “inactive; negative”, the mutagenic call (Test System: E. COLI, Strain/Indicator: WP2 UVRA, Metabolic Activation: HAMSTER, LIVER, S-9, Method: STANDARD PLATE) was “inactive; negative” and the mutagenic call (Test System: E. COLI, Strain/Indicator: WP2 UVRA, Metabolic Activation: MOUSE, LIVER, S-9, AROCLOR 1254, Method: STANDARD PLATE) was “inactive; negative”. For the same compound, the mutagenic call (Test System: E. COLI, Strain/Indicator: WP2 UVRA, Metabolic Activation: MOUSE, LIVER, S-9, Method: STANDARD PLATE) was “inactive; negative”, the mutagenic call (Test System: E. COLI, Strain/Indicator: WP2 UVRA, Metabolic Activation: NONE, Method: STANDARD PLATE) was “inactive; negative” and the mutagenic call (Test System: E. COLI, Strain/Indicator: WP2 UVRA, Metabolic Activation: RAT, LIVER, S-9, AROCLOR 1254, Method: STANDARD PLATE) was “inactive; negative”. For the same compound, the mutagenic call (Test System: E. COLI, Strain/Indicator: WP2 UVRA, Metabolic Activation: RAT, LIVER, S-9, Method: STANDARD PLATE) was “inactive; negative”, the mutagenic call (Test System: MOUSE LYMPHOMA, Strain/Indicator: L5178Y (TK+/TK-), Metabolic Activation: NONE, Method: SUSPENSION/PLATE) was “active; positive” and the mutagenic call (Test System: MOUSE LYMPHOMA, Strain/Indicator: L5178Y (TK+/TK-), Metabolic Activation: RAT, LIVER, S-9, AROCLOR 1254, Method: SUSPENSION/PLATE) was “active; positive”.

With `Nc1ccc([N+](=O)[O-])cc1Cl` the mutagenic call (End Point: IN VITRO CHROMOSOMAL ABERRATIONS, Test System: CHL CELLS, Metabolic Activation: RAT, LIVER, S-9, SODIUM PHENOBARBITAL AND 5,6-BENZOFLAVONE) was “active; positive (structural changes)”, the mutagenic call (End Point: IN VITRO MICRONUCLEUS, Test System: CHL/IU CELLS, Metabolic Activation: NONE) was “inactive; negative” and the mutagenic call (Test System: AMES SALMONELLA TYPHIMURIUM, Strain/Indicator: TA98, Metabolic Activation: NONE, Method: PREINCUBATION) was “active; positive”. For the same compound, the mutagenic call (Test System: AMES SALMONELLA TYPHIMURIUM, Strain/Indicator: TA98, Metabolic Activation: RAT, LIVER, S-9, KANECHLOR 500, Method: PREINCUBATION) was “active; positive”, the mutagenic call (Test System: AMES SALMONELLA TYPHIMURIUM, Strain/Indicator: TA100, Metabolic Activation: NONE, Method: PREINCUBATION) was “inactive; negative” and the mutagenic call (Test System: AMES SALMONELLA TYPHIMURIUM, Strain/Indicator: TA100, Metabolic Activation: RAT, LIVER, S-9, KANECHLOR 500, Method: PREINCUBATION) was “inactive; negative”. The mutagenic call (Test System: UDS RODENT HEPATOCYTES, Strain/Indicator: THY INCORP (NON-S-PHASE), Metabolic Activation: NONE, Method: AUTORADIOGRAPHY) was “inactive; negative”.
